Data taken from patent US20100028395A1, “COMPOSITIONS CONTAINING N-ACETYLGLUCOSAMINE FOR USE IN DERMO-COSMETOLOGY AND AESTHETIC MEDICINE” (ROTTAPHARM S.P.A., priority 2007, published 2010).

Experiments:
Assay type in all cases: cell-based
[1] = tested on: Human fibroblasts, Detroit 551 ATCC CCL III; experiment: Stimulation of elastin synthesis in human fibroblast cultures (Fastin assay); conditions: 24 h
Description: The scope of the test has been the evaluation and the comparison of the potential stimulation exerted by the test substances on the expression of collagen and elastin in “in vitro” cultures of skin-derived cells, such as fibroblasts. The test in question, even though conducted “in vitro”, can be considered to be predictive of the effects of use of the same substances “in vivo”.
Human fibroblasts, Detroit 551 ATCC CCL III from LGC Promochem (Milan, Italy) have been used.
The substances and concentrations tested have been the same as those already described for stage B of the test on the stimulation of HA expression, i.e.: • CA: 0.66, 1.32, 1.98, 2.64 and 3.3 mg/ml • NAG: 0.5, 1.0, 1.5, 2.0 and 2.5 mg/ml • ASS: 0.16, 0.32, 0.48, 0.64 and 0.80 mg/ml
Cells have been plated out in 96 well plates, 2500 cells/well for 24 hours in cell growth medium ([…], DMEM)+10% foetal calf serum (FCS). Fresh culture medium, enriched with just 5% FCS and containing the substances to be tested, so as to reach the final concentrations desired, has then been added. The samples have been dissolved directly in the culture medium. Each sample has been tested in duplicate and the experiments have been repeated twice. The parameters of interest have been determined after 24 hours on separate plates. Untreated cell cultures have been used as controls.
Elastin has been assayed using a commercially available test (Fastin™, biodye science). The assay is based on the interaction of 5,10,15,20-tetraphenyl-21,23-porphyrin with elastin molecules.
De novo elastin synthesis has been evaluated in the culture medium following treatment with the test substances, following the protocol provided with the test, and by using the calibration curve obtained employing the elastin standard contained in the kit itself.
Evaluation of the effects of the substances tested, at the various concentrations, on fibroblast cultures, has been expressed as the absolute and percent increase or decrease of collagen and elastin expression, with respect to the corresponding control culture, after 24 hours of incubation.
The percentage difference increase or decrease of the effects exerted by CA and NAG, at corresponding concentrations, have then been calculated, with consequent evaluation of their potential statistical significance by means of the test Student “t” test.

[2] = tested on: Human fibroblasts, Detroit 551 ATCC CCL III; experiment: Stimulation of protein synthesis in human fibroblast cultures (Lowry method)
Protocol: (§1) The following have been used: • Human fibroblasts, Detroit 551 ATCC CCL III from LGC Promochem (Milan, Italy); • Human keratinocyte primary culture: HEKA, Cascade Biologics, cat. 005-5C. Test substances and concentrations
(§2) The substances and concentrations tested are those reported below (on both fibroblasts and keratinocytes): • CA: 0.13, 0.66, 1.32, and 2.64 mg/ml • NAG: 0.1, 0.5, 1.0, and 2.0 mg/ml
(§3) The method is identical to that already described for collagen and elastin with the difference that, following the addition of the test substances into the culture medium, the medium has been substituted daily for three days. Each sample has been tested in duplicate and the experiments have been repeated twice. The parameter of interest, i.e. protein synthesis, has been evaluated at 24, 48 and 72 hours on separate plates. Untreated cell cultures have been used as controls.
(§4) Protein has been assayed using the Lowry method [Lowry et al. 1951] consisting of a Biuret reduction reaction envisaging the use of Folin-Ciocalteau reagent as chromophore, with a yellow to blue colour change and spectrophotometric measurement at 750 nm [Creighton et al. 1984; Sengupta et al. 1993].
(§5) The protein content of the cultures in question has been obtained from comparison of their optical densities with a titration curve made using albumin as a protein standard.
(§6) Evaluation of the effect of the substances tested, at the various concentrations and times, on cultures of both fibroblasts and keratinocytes has been expressed in both absolute terms (expressed protein production in mg/ml) and as percentage increase or decrease with respect to control cultures.
(§7) The percentage difference increase or decrease of the effects exerted by CA and NAG, over various days and at the corresponding concentrations, have then been calculated, with evaluation of their potential statistical significance by means of the test Student “t” test.

[3] = tested on: Human keratinocyte primary culture: HEKA; experiment: Stimulation of protein synthesis in human keratinocyte cultures (Lowry method); conditions: keratinocytes
Protocol: as §1, §2, §3, §4, §5, §6, §7

**Q.** With `CC(=O)N[C@@H](C=O)[C@@H](O)[C@H](O)[C@H](O)CO` [NAG, N-acetyl-2-amino-2 deoxyglucose] as the molecule, how does the “Elastin (μg/ml) (Diff. from baseline)” value ([1]; NAG 0.50 mg/ml) read?
**A.** +11.21 μg/ml

**Q.** What about the “Elastin (μg/ml) (Mean ± st. dev.)” value ([1]; NAG 0.50 mg/ml) of the same molecule?
**A.** 16.29 ± 0.83 µg/mL

**Q.** And the “Elastin (%) (Diff. from baseline)” value ([1]; NAG 1.00 mg/ml)?
**A.** +278.94%

**Q.** What about the “Elastin (μg/ml) (Diff. from baseline)” value ([1]; NAG 1.00 mg/ml) of the same molecule?
**A.** +14.17 μg/ml

**Q.** What about the “Elastin (μg/ml) (Mean ± st. dev.)” value ([1]; NAG 1.00 mg/ml) of the same molecule?
**A.** 19.25 ± 0.99 µg/mL

**Q.** And the “Elastin (%) (Diff. from baseline)” value ([1]; NAG 1.50 mg/ml)?
**A.** +320.28%

**Q.** What about the “Elastin (μg/ml) (Diff. from baseline)” value ([1]; NAG 1.50 mg/ml) of the same molecule?
**A.** +16.27 μg/ml

**Q.** What about the “Elastin (μg/ml) (Mean ± st. dev.)” value ([1]; NAG 1.50 mg/ml) of the same molecule?
**A.** 21.35 ± 1.01 µg/mL

**Q.** What about the “Elastin (%) (Diff. from baseline)” value ([1]; NAG 2.00 mg/ml) of the same molecule?
**A.** +345.27%

**Q.** What about the “Elastin (μg/ml) (Diff. from baseline)” value ([1]; NAG 2.00 mg/ml) of the same molecule?
**A.** +17.54 μg/ml

**Q.** What about the “Elastin (μg/ml) (Mean ± st. dev.)” value ([1]; NAG 2.00 mg/ml) of the same molecule?
**A.** 22.62 ± 1.03 µg/mL

**Q.** What about the “Elastin (μg/ml) (Diff. from baseline)” value ([1]; NAG 2.50 mg/ml) of the same molecule?
**A.** +17.22 μg/ml

**Q.** And the “Elastin (μg/ml) (Mean ± st. dev.)” value ([1]; NAG 2.50 mg/ml)?
**A.** 22.30 ± 1.04 µg/mL

**Q.** And the “Expr. prot. from NAG % incr. over baseline” value ([2]; NAG 0.10 mg/ml, 24 hours)?
**A.** −14.6%

**Q.** What about the “Expr. prot. from NAG (mg/ml) - Mean +/− st. dev.” value (shortened to “Expr. prot. from NAG (mg/ml)”) ([2]; NAG 0.10 mg/ml, 24 hours) of the same molecule?
**A.** 0.70 ± 0.11 mg/mL

**Q.** And the “Expr. prot. from NAG % incr. over baseline” value ([2]; NAG 0.10 mg/ml, 48 hours)?
**A.** −7.8%

**Q.** And the “Expr. prot. from NAG (mg/ml)” value ([2]; NAG 0.10 mg/ml, 48 hours)?
**A.** 0.95 ± 0.08 mg/mL

**Q.** What about the “Expr. prot. from NAG % incr. over baseline” value ([2]; NAG 0.10 mg/ml, 72 hours) of the same molecule?
**A.** −6.4%

**Q.** What about the “Expr. prot. from NAG (mg/ml)” value ([2]; NAG 0.10 mg/ml, 72 hours) of the same molecule?
**A.** 1.03 ± 0.18 mg/mL

**Q.** And the “Expr. prot. from NAG % incr. over baseline” value ([2]; NAG 0.50 mg/ml, 24 hours)?
**A.** +31.7%

**Q.** And the “Expr. prot. from NAG (mg/ml)” value ([2]; NAG 0.50 mg/ml, 24 hours)?
**A.** 1.08 ± 0.29 mg/mL

**Q.** And the “Expr. prot. from NAG % incr. over baseline” value ([2]; NAG 0.50 mg/ml, 48 hours)?
**A.** −9.7%

**Q.** And the “Expr. prot. from NAG (mg/ml)” value ([2]; NAG 0.50 mg/ml, 48 hours)?
**A.** 0.93 ± 0.08 mg/mL

**Q.** What about the “Expr. prot. from NAG % incr. over baseline” value ([2]; NAG 0.50 mg/ml, 72 hours) of the same molecule?
**A.** +3.6%

**Q.** What about the “Expr. prot. from NAG (mg/ml)” value ([2]; NAG 0.50 mg/ml, 72 hours) of the same molecule?
**A.** 1.14 ± 0.16 mg/mL

**Q.** And the “Expr. prot. from NAG % incr. over baseline” value ([2]; NAG 1.00 mg/ml, 24 hours)?
**A.** +35.4%

**Q.** What about the “Expr. prot. from NAG (mg/ml)” value ([2]; NAG 1.00 mg/ml, 24 hours) of the same molecule?
**A.** 1.11 ± 0.22 mg/mL

**Q.** And the “Expr. prot. from NAG % incr. over baseline” value ([2]; NAG 1.00 mg/ml, 48 hours)?
**A.** −21.4%

**Q.** What about the “Expr. prot. from NAG (mg/ml)” value ([2]; NAG 1.00 mg/ml, 48 hours) of the same molecule?
**A.** 0.81 ± 0.11 mg/mL

**Q.** And the “Expr. prot. from NAG % incr. over baseline” value ([2]; NAG 1.00 mg/ml, 72 hours)?
**A.** −5.5%

**Q.** And the “Expr. prot. from NAG (mg/ml)” value ([2]; NAG 1.00 mg/ml, 72 hours)?
**A.** 1.04 ± 0.20 mg/mL

**Q.** What about the “Expr. prot. from NAG (mg/ml)” value ([2]; NAG 2.00 mg/ml, 24 hours) of the same molecule?
**A.** 1.24 ± 0.17 mg/mL

**Q.** And the “Expr. prot. from NAG % incr. over baseline” value ([2]; NAG 2.00 mg/ml, 48 hours)?
**A.** +6.8%

**Q.** What about the “Expr. prot. from NAG (mg/ml)” value ([2]; NAG 2.00 mg/ml, 48 hours) of the same molecule?
**A.** 1.10 ± 0.20 mg/mL

**Q.** And the “Expr. prot. from NAG % incr. over baseline” value ([2]; NAG 2.00 mg/ml, 72 hours)?
**A.** +0.91%

**Q.** And the “Expr. prot. from NAG (mg/ml)” value ([2]; NAG 2.00 mg/ml, 72 hours)?
**A.** 1.11 ± 0.19 mg/mL

**Q.** What about the “Expr. prot. from NAG % incr. over baseline” value ([3]; NAG 0.10 mg/ml, 24 hours) of the same molecule?
**A.** −34.7%

**Q.** And the “Expr. prot. from NAG (mg/ml)” value ([3]; NAG 0.10 mg/ml, 24 hours)?
**A.** 0.16 ± 0.037 mg/mL

**Q.** And the “Expr. prot. from NAG (mg/ml)” value ([3]; NAG 0.10 mg/ml, 48 hours)?
**A.** 0.42 ± 0.15 mg/mL

**Q.** And the “Expr. prot. from NAG % incr. over baseline” value ([3]; NAG 0.10 mg/ml, 72 hours)?
**A.** +15.5%

**Q.** What about the “Expr. prot. from NAG (mg/ml)” value ([3]; NAG 0.10 mg/ml, 72 hours) of the same molecule?
**A.** 0.67 ± 0.09 mg/mL

**Q.** And the “Expr. prot. from NAG % incr. over baseline” value ([3]; NAG 0.50 mg/ml, 24 hours)?
**A.** −10.2%

**Q.** And the “Expr. prot. from NAG (mg/ml)” value ([3]; NAG 0.50 mg/ml, 24 hours)?
**A.** 0.22 ± 0.039 mg/mL

**Q.** And the “Expr. prot. from NAG (mg/ml)” value ([3]; NAG 0.50 mg/ml, 48 hours)?
**A.** 0.40 ± 0.12 mg/mL

**Q.** What about the “Expr. prot. from NAG % incr. over baseline” value ([3]; NAG 0.50 mg/ml, 72 hours) of the same molecule?
**A.** +10.3%

**Q.** What about the “Expr. prot. from NAG (mg/ml)” value ([3]; NAG 0.50 mg/ml, 72 hours) of the same molecule?
**A.** 0.64 ± 0.12 mg/mL

**Q.** And the “Expr. prot. from NAG % incr. over baseline” value ([3]; NAG 1.00 mg/ml, 24 hours)?
**A.** +44.9%

**Q.** What about the “Expr. prot. from NAG (mg/ml)” value ([3]; NAG 1.00 mg/ml, 24 hours) of the same molecule?
**A.** 0.36 ± 0.047 mg/mL

**Q.** What about the “Expr. prot. from NAG % incr. over baseline” value ([3]; NAG 1.00 mg/ml, 48 hours) of the same molecule?
**A.** +41.2%

**Q.** What about the “Expr. prot. from NAG (mg/ml)” value ([3]; NAG 1.00 mg/ml, 48 hours) of the same molecule?
**A.** 0.48 ± 0.11 mg/mL

**Q.** And the “Expr. prot. from NAG % incr. over baseline” value ([3]; NAG 1.00 mg/ml, 72 hours)?
**A.** +20.7%

**Q.** What about the “Expr. prot. from NAG (mg/ml)” value ([3]; NAG 1.00 mg/ml, 72 hours) of the same molecule?
**A.** 0.70 ± 0.08 mg/mL

**Q.** What about the “Expr. prot. from NAG (mg/ml)” value ([3]; NAG 2.00 mg/ml, 24 hours) of the same molecule?
**A.** 0.38 ± 0.050 mg/mL

**Q.** And the “Expr. prot. from NAG % incr. over baseline” value ([3]; NAG 2.00 mg/ml, 48 hours)?
**A.** +38.2%

**Q.** What about the “Expr. prot. from NAG (mg/ml)” value ([3]; NAG 2.00 mg/ml, 48 hours) of the same molecule?
**A.** 0.47 ± 0.12 mg/mL

**Q.** And the “Expr. prot. from NAG % incr. over baseline” value ([3]; NAG 2.00 mg/ml, 72 hours)?
**A.** +43.1%

**Q.** And the “Expr. prot. from NAG (mg/ml)” value ([3]; NAG 2.00 mg/ml, 72 hours)?
**A.** 0.83 ± 0.070 mg/mL
